Converted amounts (≈) assume the structure as drawn.
Columns and labels:
Escherichia coli [1] = test: Concentration required for 90 percent inhibition of [14C]- pen-G binding to Escherichia coli Penicillin-binding protein (DCO PBP1a 90 KDa)
Escherichia coli [2] = test: Concentration required for 90 percent inhibition of [14C]- pen-G binding to Escherichia coli Penicillin-binding protein (DCO PBP1b 90 KDa)
Escherichia coli [3] = test: Concentration required for 90 percent inhibition of [14C]- pen-G binding to Escherichia coli Penicillin-binding protein (DCO PBP2 66 KDa)
Escherichia coli [4] = test: Concentration required for 90 percent inhibition of [14C]- pen-G binding to Escherichia coli Penicillin-binding protein (DCO PBP3 60 KDa)
Escherichia coli [5] = test: Concentration required for 90 percent inhibition of [14C]- pen-G binding to Escherichia coli Penicillin-binding protein (DCO PBP4 49 KDa)
Escherichia coli [6] = test: Concentration required for 90 percent inhibition of [14C]- pen-G binding to Escherichia coli Penicillin-binding protein (DCO PBP5/6 40 KDa)
Staphylococcus aureus [7] = test: Concentration required for 90 percent inhibition of [14C]- pen-G binding to Staphylococcus aureus ATCC 25293 PBP4 41 KDa
Staphylococcus aureus [8] = test: Concentration required for 90 percent inhibition of [14C]- pen-G binding to Staphylococcus aureus Penicillin-binding protein (ATCC 25293 PBP1 87 KDa)
Staphylococcus aureus [9] = test: Concentration required for 90 percent inhibition of [14C]- pen-G binding to Staphylococcus aureus Penicillin-binding protein (ATCC 25293 PBP2 80 KDa)
Staphylococcus aureus [10] = test: Tested for minimum inhibitory concentration against Staphylococcus aureus ATCC 25293; format: functional
Escherichia coli [11] = test: Tested for minimum inhibitory concentration against Escherichia coli DC2; format: functional
Escherichia coli [12] = test: Tested for minimum inhibitory concentration against Escherichia coli DCO; format: functional
Escherichia coli [13] = test: Concentration required for 90 percent inhibition of [14C]- pen-G binding to Escherichia coli DCO PBP1a 90 KDa
Escherichia coli [14] = test: Concentration required for 90 percent inhibition of [14C]- pen-G binding to Escherichia coli DCO PBP1b 90 KDa
Escherichia coli [15] = test: Concentration required for 90 percent inhibition of [14C]- pen-G binding to Escherichia coli DCO PBP2 66 KDa
Escherichia coli [16] = test: Concentration required for 90 percent inhibition of [14C]- pen-G binding to Escherichia coli DCO PBP3 60 KDa
Escherichia coli [17] = test: Concentration required for 90 percent inhibition of [14C]- pen-G binding to Escherichia coli DCO PBP4 49 KDa
Escherichia coli [18] = test: Concentration required for 90 percent inhibition of [14C]- pen-G binding to Escherichia coli DCO PBP5/6 40 KDa
Staphylococcus aureus [19] = test: Concentration required for 90 percent inhibition of [14C]- pen-G binding to Staphylococcus aureus ATCC 25293 PBP2 80 KDa
Staphylococcus aureus [20] = test: Concentration required for 90 percent inhibition of [14C]- pen-G binding to Staphylococcus aureus ATCC 25293 PBP3 75 KDa
Staphylococcus aureus [21] = test: Concentration required for 90 percent inhibition of [14C]- pen-G binding to Staphylococcus aureus ATCC 25293 PBP1 87 KDa

Concentration (Staphylococcus aureus [7]) [µg/mL]	MIC (Staphylococcus aureus [10]) [µg/mL]	MIC (Escherichia coli [11]) [µg/mL]	MIC (Escherichia coli [12]) [µg/mL]	Concentration (Escherichia coli [13]) [µg/mL]	Concentration (Escherichia coli [14]) [µg/mL]	Concentration (Escherichia coli [15]) [µg/mL]	Concentration (Escherichia coli [16]) [µg/mL]	Concentration (Escherichia coli [17]) [µg/mL]	Concentration (Escherichia coli [18]) [µg/mL]	Concentration (Staphylococcus aureus [19]) [µg/mL]	Concentration (Staphylococcus aureus [20]) [µg/mL]	Concentration (Staphylococcus aureus [21]) [µg/mL]	SMILES	further results
> 100	> 20	–	–	–	–	–	–	–	–	–	–	–	CC1(C)SC2C(NC(=O)Cc3ccccc3)C(=O)N2[C@H]1C(=O)O (stereo partly drawn)	Concentration (Escherichia coli [1]): > 100 µg/mL; Concentration (Escherichia coli [2]): > 100 µg/mL; Concentration (Escherichia coli [3]): > 100 µg/mL; Concentration (Escherichia coli [4]): 100 µg/mL; Concentration (Escherichia coli [5]): 100 µg/mL; Concentration (Escherichia coli [6]): > 100 µg/mL; Concentration (Staphylococcus aureus [8]): 2 µg/mL; Concentration (Staphylococcus aureus [9]): > 100 µg/mL
–	> 20	> 20	> 100	> 100	> 100	> 100	100	100	> 100	> 100	> 100	100	CC(=O)NCCCC[C@@H](C(=O)N[C@@H]1C(=O)N2[C@@H]1SC(C)(C)[C@@H]2C(=O)O)c1ccccc1	–
–	> 100	> 100	> 100	30	100	30	10	10	> 100	100	> 100	100	CC1(C)S[C@@H]2[C@H](NC(=O)[C@H](CCCCN)c3ccccc3)C(=O)N2[C@H]1C(=O)O	–
> 100	1.6 (≈ 4.58 µM)	0.4 (≈ 1.14 µM)	–	2	10	0.5	2	0.1	100	2	0.1	0.1	CC1(C)S[C@@H]2[C@H](NC(=O)[C@H](N)c3ccccc3)C(=O)N2[C@H]1C(=O)O [AMPICILLIN]	–
–	20 (≈ 44.7 µM)	> 100	> 100	30	100	30	30	30	> 100	100	> 100	30	CC(=O)NCCCC[C@H](C(=O)N[C@@H]1C(=O)N2[C@@H]1SC(C)(C)[C@@H]2C(=O)O)c1ccccc1	–
–	5 (≈ 12.3 µM)	5 (≈ 12.3 µM)	100 (≈ 247 µM)	10	100	30	100	30	> 100	30	> 100	30	CC1(C)S[C@@H]2[C@H](NC(=O)[C@@H](CCCCN)c3ccccc3)C(=O)N2[C@H]1C(=O)O	–

SMILES	Concentration (Staphylococcus aureus [7]) [µg/mL]	MIC (Staphylococcus aureus [10]) [µg/mL]	MIC (Escherichia coli [11]) [µg/mL]	MIC (Escherichia coli [12]) [µg/mL]	Concentration (Escherichia coli [13]) [µg/mL]	Concentration (Escherichia coli [14]) [µg/mL]	Concentration (Escherichia coli [15]) [µg/mL]	Concentration (Escherichia coli [16]) [µg/mL]	Concentration (Escherichia coli [17]) [µg/mL]	Concentration (Escherichia coli [18]) [µg/mL]	Concentration (Staphylococcus aureus [19]) [µg/mL]	Concentration (Staphylococcus aureus [20]) [µg/mL]	Concentration (Staphylococcus aureus [21]) [µg/mL]	further results
CC1(C)S[C@@H]2[C@H](NC(=O)Cc3ccccc3)C(=O)N2[C@H]1C(=O)O [PENICILLIN G]	10	< 0.05	12 (≈ 35.9 µM)	50 (≈ 150 µM)	> 100	10	10	2	2	> 100	0.1	0.1	0.1	–

— ChEMBL document CHEMBL1151601, “Probing the binding site of the penicillin side-chain based on the tipper-strominger hypothesis” (1993)
